Laboratory results as given in ChEMBL document CHEMBL3045581, “Preliminary evaluation of rat kidney aldose reductase inhibitory activity of 2-phenylindole derivatives: affiliation to antioxidant activity” (Med Chem Res, 2007).
Calls of active or inactive are those of the source. The calls are words filed in the database; no cut-off is given here.

Tests used:
[1] = target: Aldo-keto reductase family 1 member B1 (Rattus norvegicus) (UniProt P07943); assay: Inhibition of Rattus norvegicus albino (rat) kidney aldose reductase using D-L-glyceraldehyde as substrate assessed as decrease in NADPH level measured for 5 min by spectrophotometric analysis
[2] = system: Liver; assay: Antioxidant activity in Rattus norvegicus (rat) liver assessed as superoxide anion scavenging activity at 10^-3 to 10^-4 M; type: functional, tissue-based
[3] = system: Liver; assay: Antioxidant activity in Rattus norvegicus (rat) liver assessed as DPPH free radical scavenging activity at 10^-3 to 10^-4 M; type: functional, tissue-based

Compound	inhibition [1]	Activity [2]	Activity [3]
O=[N+]([O-])c1cc([N+](=O)[O-])c2[nH]c(-c3ccccc3)cc2c1	inactive	Active	Active
O=Cc1c(-c2ccccc2)[nH]c2ccccc12	7.64%	inactive	inactive
c1ccc(-c2cc3ccccc3[nH]2)cc1	inactive	inactive	inactive
Nc1ccc(-c2[nH]c3ccccc3c2C=O)cc1	inactive	inactive	inactive
O=Cc1c(-c2ccc(F)cc2)[nH]c2ccccc12	inactive	inactive	inactive
O=Cc1c(-c2ccc(Cl)cc2)[nH]c2ccccc12	inactive	inactive	inactive

Now from value to compound, other results behind:

inhibition [1]	Compound	Activity [2]	Activity [3]
inactive	O=Cc1c(-c2ccc(Cl)c([N+](=O)[O-])c2)[nH]c2ccccc12	inactive	inactive
inactive	Clc1ccc(-c2cc3ccccc3[nH]2)cc1	Active	inactive
11%	Nc1ccc(-c2cc3ccccc3[nH]2)cc1	Active	Active
5.29%	O=[N+]([O-])c1cc(-c2cc3ccccc3[nH]2)ccc1Cl	Active	Active
inactive	Fc1ccc(-c2cc3ccccc3[nH]2)cc1	Active	inactive
inactive	Clc1ccc(-c2cc3ccccc3[nH]2)cc1Cl	Active	inactive
